Test results published in patent publication US12268674B2, “Mi-2β inhibitor as an immunotherapy agent” (BioVentures, LLC, priority 2021, dated 2025).

Tests used:
GMPS = biological target: T1, GMPS (Homo sapiens, UniProt P49915); assay: ATPase profile (ATP acyl phosphate probe); format: binding
T1 construct: endogenous in cells; host or cells: A375 cell lysate

HSP90AB1 = biological target: T2, HSP90AB1 (Homo sapiens, UniProt P08238); assay: ATPase profile (ATP acyl phosphate probe); format: binding; details: HSP90AB1, SEQ ID NO: 97, ATP BS
T2 construct: to get the native cell lysate; endogenous in cells; host or cells: A375

MTHFD1L = biological target: T3, MTHFD1L (Homo sapiens, UniProt Q6UB35); assay: ATPase profile (ATP acyl phosphate probe); format: binding; details: SEQ ID NO: 126, ATP BS
T3 construct: to get the native cell lysate; endogenous in cells; host or cells: A375
T3 sequence (Q6UB35 32-978): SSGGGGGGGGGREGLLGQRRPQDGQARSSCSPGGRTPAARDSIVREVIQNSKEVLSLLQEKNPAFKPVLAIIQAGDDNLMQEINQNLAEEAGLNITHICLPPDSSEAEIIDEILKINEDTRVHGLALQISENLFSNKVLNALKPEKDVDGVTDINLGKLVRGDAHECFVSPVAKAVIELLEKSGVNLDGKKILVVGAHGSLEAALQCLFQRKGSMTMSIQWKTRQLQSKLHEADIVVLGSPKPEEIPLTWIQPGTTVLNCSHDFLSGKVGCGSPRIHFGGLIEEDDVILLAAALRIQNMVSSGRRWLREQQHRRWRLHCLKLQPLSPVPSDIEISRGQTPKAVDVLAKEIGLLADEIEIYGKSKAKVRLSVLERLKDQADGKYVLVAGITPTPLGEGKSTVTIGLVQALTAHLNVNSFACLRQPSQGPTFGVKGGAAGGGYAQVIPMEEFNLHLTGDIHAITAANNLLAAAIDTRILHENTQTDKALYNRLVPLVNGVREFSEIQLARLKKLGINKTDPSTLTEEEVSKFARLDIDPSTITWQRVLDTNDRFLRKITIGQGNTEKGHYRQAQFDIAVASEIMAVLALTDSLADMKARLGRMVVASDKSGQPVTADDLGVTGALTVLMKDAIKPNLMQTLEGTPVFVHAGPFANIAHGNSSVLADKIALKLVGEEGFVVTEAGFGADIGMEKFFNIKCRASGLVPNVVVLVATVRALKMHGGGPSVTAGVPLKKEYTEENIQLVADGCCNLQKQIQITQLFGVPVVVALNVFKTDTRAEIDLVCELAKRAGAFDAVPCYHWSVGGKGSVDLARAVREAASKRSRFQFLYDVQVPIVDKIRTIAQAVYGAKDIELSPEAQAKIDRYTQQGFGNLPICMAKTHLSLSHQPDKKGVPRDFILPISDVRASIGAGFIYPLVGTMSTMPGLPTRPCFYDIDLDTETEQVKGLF

FDPS = biological target: T4, FDPS (Homo sapiens, UniProt P14324); assay: ATPase profile (ATP acyl phosphate probe); format: binding; details: SEQ ID NO: 78, ATP BS
T4 construct: endogenous in cells; host or cells: A375 cell lysate
T4 sequence (P14324 whole entry): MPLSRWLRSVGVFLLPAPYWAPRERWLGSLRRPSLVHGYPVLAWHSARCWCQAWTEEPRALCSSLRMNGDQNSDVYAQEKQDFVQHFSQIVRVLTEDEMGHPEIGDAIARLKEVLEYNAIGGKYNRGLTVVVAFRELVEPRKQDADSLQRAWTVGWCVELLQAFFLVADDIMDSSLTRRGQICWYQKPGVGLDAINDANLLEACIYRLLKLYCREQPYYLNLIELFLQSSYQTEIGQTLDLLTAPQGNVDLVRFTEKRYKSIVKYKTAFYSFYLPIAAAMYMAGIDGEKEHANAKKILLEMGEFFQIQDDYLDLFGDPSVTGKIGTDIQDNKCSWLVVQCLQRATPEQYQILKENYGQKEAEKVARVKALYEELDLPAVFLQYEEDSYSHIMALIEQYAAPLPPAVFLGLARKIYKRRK

ACTR3 = biological target: T5, ACTR3 (Homo sapiens, UniProt P61158); assay: ATPase profile (ATP acyl phosphate probe); format: binding
T5 construct: to get the native cell lysate; host or cells: A375 cell lysate

PSMC1 = biological target: T6, PSMC1 (Homo sapiens, UniProt P62191); assay: ATPase profile (ATP acyl phosphate probe); format: binding; details: PSMC1, SEQ ID NO: 173, ATP BS
T6 construct: endogenous in cells; host or cells: A375 cell lysate

SMC4 = biological target: T7, SMC4 (Homo sapiens, UniProt Q9NTJ3); assay: ATPase profile (ATP acyl phosphate probe); format: binding; details: SMC4, SEQ ID NO: 195, ATP BS
T7 construct: to get the native cell lysate; endogenous in cells; host or cells: A375 cell lysate

UBA2 = biological target: T8, UBA2 (Homo sapiens, UniProt Q9UBT2); assay: ATPase profile (ATP acyl phosphate probe); format: binding
T8 construct: to get the native cell lysate; endogenous in cells; host or cells: A375 cell lysate
T8 sequence (Q9UBT2 whole entry): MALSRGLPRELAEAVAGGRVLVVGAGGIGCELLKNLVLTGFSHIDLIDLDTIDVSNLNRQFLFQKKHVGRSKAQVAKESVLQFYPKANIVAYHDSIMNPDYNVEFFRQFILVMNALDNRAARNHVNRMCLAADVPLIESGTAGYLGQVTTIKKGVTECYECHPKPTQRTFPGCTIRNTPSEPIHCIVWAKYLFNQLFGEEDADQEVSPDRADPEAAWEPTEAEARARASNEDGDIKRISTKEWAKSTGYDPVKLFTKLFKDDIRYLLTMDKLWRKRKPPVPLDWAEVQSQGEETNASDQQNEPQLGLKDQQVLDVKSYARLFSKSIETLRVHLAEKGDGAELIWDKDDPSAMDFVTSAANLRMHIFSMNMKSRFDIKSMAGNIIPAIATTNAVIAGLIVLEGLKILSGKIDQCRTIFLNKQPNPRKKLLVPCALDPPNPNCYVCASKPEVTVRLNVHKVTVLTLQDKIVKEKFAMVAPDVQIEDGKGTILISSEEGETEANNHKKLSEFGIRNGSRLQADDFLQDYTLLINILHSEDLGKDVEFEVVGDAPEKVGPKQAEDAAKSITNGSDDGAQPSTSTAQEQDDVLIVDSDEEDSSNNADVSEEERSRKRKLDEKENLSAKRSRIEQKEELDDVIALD
T8 sequence (Q9UBE0 whole entry partner): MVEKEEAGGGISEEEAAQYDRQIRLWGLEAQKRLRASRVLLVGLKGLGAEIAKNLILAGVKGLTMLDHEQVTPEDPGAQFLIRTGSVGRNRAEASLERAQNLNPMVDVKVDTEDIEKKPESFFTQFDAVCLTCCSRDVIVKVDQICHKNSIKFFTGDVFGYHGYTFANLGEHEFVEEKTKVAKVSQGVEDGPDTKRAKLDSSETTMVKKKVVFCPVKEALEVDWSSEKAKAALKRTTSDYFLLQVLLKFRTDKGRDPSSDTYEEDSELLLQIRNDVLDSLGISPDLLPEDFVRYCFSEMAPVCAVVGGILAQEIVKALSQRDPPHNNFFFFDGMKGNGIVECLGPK

HSP60 = biological target: T9, HSP60 (Homo sapiens, UniProt P10809); assay: ATPase profile (ATP acyl phosphate probe); format: binding; details: HSP60, SEQ ID NO: 94, ATP BS
T9 construct: to get the native cell lysate; endogenous in cells; host or cells: A375

CMPK1 = biological target: T10, CMPK1 (Homo sapiens, UniProt P30085); assay: ATPase profile (ATP acyl phosphate probe); format: binding; details: CMPK1, SEQ ID NO: 60, ATP BS
T10 construct: endogenous in cells; host or cells: A375 cell lysate

[1] = biological target: T11, recombinant purified human Mi-2β protein (Homo sapiens, UniProt Q14839); assay: FRET-based nucleosome repositioning assay (EpiDyne-FRET); format: biochemical
T11 construct: made in house
T11 sequence (Q14839 whole entry): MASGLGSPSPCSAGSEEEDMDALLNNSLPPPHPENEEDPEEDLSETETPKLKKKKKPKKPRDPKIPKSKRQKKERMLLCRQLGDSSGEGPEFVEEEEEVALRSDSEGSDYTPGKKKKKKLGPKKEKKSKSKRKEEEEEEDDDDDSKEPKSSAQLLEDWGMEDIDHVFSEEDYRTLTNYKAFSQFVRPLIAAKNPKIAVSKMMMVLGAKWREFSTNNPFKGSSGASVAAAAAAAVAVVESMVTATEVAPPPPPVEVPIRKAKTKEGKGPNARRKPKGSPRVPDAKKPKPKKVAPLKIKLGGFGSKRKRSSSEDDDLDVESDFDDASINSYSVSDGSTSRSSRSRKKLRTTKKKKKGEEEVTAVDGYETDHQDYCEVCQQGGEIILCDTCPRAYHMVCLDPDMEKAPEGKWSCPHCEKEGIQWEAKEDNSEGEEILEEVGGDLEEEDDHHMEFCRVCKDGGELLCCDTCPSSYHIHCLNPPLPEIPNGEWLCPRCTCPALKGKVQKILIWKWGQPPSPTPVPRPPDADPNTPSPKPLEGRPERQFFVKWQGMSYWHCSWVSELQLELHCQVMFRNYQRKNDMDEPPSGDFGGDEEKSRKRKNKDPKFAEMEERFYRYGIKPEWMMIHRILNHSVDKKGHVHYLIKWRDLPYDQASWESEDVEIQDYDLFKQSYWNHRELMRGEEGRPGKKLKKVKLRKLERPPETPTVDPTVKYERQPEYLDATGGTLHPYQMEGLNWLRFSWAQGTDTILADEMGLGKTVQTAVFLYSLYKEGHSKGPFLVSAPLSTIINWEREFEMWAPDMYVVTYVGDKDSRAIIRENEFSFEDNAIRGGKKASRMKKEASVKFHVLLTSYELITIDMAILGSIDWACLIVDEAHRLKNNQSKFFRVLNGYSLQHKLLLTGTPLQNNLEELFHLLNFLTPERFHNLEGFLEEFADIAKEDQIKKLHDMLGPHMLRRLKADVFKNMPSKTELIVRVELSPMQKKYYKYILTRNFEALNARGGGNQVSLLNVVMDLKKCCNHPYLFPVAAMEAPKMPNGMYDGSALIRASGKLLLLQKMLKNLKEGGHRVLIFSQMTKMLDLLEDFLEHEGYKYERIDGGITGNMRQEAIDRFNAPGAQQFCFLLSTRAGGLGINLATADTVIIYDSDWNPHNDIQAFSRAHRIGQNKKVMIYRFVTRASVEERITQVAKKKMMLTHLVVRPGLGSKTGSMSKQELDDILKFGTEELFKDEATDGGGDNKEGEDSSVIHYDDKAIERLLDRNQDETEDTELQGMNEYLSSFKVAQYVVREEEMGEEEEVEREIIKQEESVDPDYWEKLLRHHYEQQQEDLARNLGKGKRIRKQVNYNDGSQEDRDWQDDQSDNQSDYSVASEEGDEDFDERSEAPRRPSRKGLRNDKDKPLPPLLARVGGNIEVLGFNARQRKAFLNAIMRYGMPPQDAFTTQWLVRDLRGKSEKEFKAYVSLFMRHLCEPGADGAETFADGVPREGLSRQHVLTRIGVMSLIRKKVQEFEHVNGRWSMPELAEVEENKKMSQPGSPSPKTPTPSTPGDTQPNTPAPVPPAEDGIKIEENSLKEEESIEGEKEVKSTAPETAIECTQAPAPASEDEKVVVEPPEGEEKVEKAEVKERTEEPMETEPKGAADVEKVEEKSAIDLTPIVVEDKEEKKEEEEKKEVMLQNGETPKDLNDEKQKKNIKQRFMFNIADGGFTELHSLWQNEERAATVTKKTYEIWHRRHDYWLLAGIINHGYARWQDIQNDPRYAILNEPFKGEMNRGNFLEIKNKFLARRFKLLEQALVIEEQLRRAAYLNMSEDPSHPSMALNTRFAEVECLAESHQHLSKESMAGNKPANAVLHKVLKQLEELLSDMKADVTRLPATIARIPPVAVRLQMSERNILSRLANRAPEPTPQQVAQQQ
Description: To screen small molecules that inhibit Mi-2β activity, Homology Modeling was carried out using Structure Prediction Wizard in Prime (49, 50). Mi-2β belongs to the CHD family of chromatin remodelers, which share highly conserved ATPase/helicase domains (51, 52). The Homology Model of Mi-2β was generated using the yeast CHD1 structure (PDB code: 3MWY) as template and the sequence was obtained from Uniprot (53), which clearly depicted the interaction of Mi-2β binding pocket and ATP (FIG. 10a). Virtual screening was done with the enzyme hinge region ligands database and nucleoside mimetic database from Enamine. All ligands of ˜23,010 compounds were docked to the ATP binding site using SP docking and post-processed with Prime MM-GBSA. Ligands with a methyldihydroimidazopyridinone structure were predicted to bind best to the ATP binding region of Mi-2β. To analyze biochemically the inhibitory activity of those inhibitors, a Fluorescence Resonance Energy Transfer (FRET)-based nucleosome repositioning assay (54, 55) was designed and modified using recombinant purified human Mi-2β protein to screen an in-house library of small molecular compounds with a methyldihydroimidazopyridinone structure (FIG. 10b). Briefly, the recombinant nucleosome substrates consist of a Cy5-labeled human histone octamer (H2A T120C-Cy5) wrapped with 5′ Cy3-labeled DNA, which contains a terminal nucleosome 601 positioning sequence. The 601 sequence provides the most thermodynamically preferred locations on DNA for histone octamer (56). FRET signaling was monitored by exciting the nucleosomes at the Cy3 absorption maximum and measuring Cy5 emissions and consequently the FRET signal is at a maximum at the assembled starting point. In the presence of ATP, Mi-2β induces the histone octamer to translocate along the DNA such that the Cy3-labeled DNA 5′ end is moved away from the Cy5-labeled octamer and consequently the FRET signal is decreased (FIG. 10b). The reaction conditions for nucleosome repositioning were modified through multiple rounds of optimization and validation (FIG. 10c-d). […]

UBA1 = UBA1 (Homo sapiens, UniProt P22314); assay: ATPase profile (ATP acyl phosphate probe); format: binding; details: UBA1, SEQ ID NO: 217, ATP BS
VPS4A, VPS4B = assay: ATPase profile (ATP acyl phosphate probe); format: binding; details: SEQ ID NO: 229, ATP BS
[2] = system: panel of 233 diverse ATPases; assay: ATP acyl phosphate probe assay, ATPase profile in native A375 cell lysates; format: binding; details: 1 μM

T1 sequence (P49915 whole entry): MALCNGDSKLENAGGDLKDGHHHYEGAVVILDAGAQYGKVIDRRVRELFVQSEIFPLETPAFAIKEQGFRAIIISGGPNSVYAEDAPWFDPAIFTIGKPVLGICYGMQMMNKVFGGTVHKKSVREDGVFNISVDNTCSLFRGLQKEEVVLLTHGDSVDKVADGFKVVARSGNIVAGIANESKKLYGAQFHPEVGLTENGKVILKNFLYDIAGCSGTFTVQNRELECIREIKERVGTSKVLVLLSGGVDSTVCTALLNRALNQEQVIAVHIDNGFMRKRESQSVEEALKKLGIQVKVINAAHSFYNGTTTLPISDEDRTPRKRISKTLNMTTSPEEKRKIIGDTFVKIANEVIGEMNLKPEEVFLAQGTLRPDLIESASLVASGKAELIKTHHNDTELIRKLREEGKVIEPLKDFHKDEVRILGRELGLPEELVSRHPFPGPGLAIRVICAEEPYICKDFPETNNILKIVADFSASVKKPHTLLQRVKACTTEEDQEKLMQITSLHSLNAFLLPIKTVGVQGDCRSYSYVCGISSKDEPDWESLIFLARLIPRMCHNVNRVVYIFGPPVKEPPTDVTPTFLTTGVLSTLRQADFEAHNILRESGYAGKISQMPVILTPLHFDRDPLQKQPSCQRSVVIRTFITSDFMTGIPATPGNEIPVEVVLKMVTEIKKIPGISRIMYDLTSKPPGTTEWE

Cn1c(=O)[nH]c2ccc(-c3cccc(C(=O)NC4CCn5ccnc5C4)c3)cc21 (stereo not drawn) [Z36-MP5, 3-(3-methyl-2-oxo-2,3-dihydro-1H-benzo[d]imidazol-5-yl)-N-(5,6,7,8-tetrahydroimidazo[1,2-a]pyridin-7-yl)benzamide]
Inhibition (%) by 1 μM Z36-MP5 (GMPS; SEQ ID NO: 85, labeling site Other): −13.99% | Inhibition (%) by 1 μM Z36-MP5 (GMPS; SEQ ID NO: 86, labeling site Other): 14.54% | Inhibition (%) by 1 μM Z36-MP5 (HSP90AB1): −3.22% | Inhibition (%) by 1 μM Z36-MP5 (MTHFD1L): 1.16% | Inhibition (%) by 1 μM Z36-MP5 (FDPS): 29.13% | Inhibition (%) by 1 μM Z36-MP5 (ACTR3; ACTR3, SEQ ID NO: 27, ATP BS): 5.36% | Inhibition (%) by 1 μM Z36-MP5 (ACTR3; ACTR3, SEQ ID NO: 28, ATP BS): −0.28% | Inhibition (%) by 1 μM Z36-MP5 (PSMC1): −7.42% | Inhibition (%) by 1 μM Z36-MP5 (SMC4): −7.11% | Inhibition (%) by 1 μM Z36-MP5 (UBA2; UBA2, SEQ ID NO: 218, ATP BS): 0.55% | Inhibition (%) by 1 μM Z36-MP5 (UBA2; UBA2, SEQ ID NO: 219, ATP BS): 7.64% | Inhibition (%) by 1 μM Z36-MP5 (HSP60): 11.39% | Inhibition (%) by 1 μM Z36-MP5 (CMPK1): 2.41% | IC50 ([1]; FRET-based nucleosome repositioning assay, read-out: IC50 against Mi-2β): 82 ± 13 nM | fold more potent than the original compound Z36 ([1]; ratio of IC50 against Mi-2β): ~85 fold | Inhibition (%) by 1 μM Z36-MP5 (UBA1): −4.55% | Inhibition (%) by 1 μM Z36-MP5 (VPS4A, VPS4B): −2.55% | inhibition against a panel of 233 diverse ATPases [2]: less than 35%
